O=C(NNC(=S)Nc1ccc(Cl)cc1)c1ccncc1
Details	solubility (mole fraction)
in PEG-400, 298.15 K	0.108
in PEG-400, 308.15 K	0.114
in PEG-400, 318.15 K	0.12
in PEG-400, 328.15 K	0.126
in PEG-400, 338.15 K	0.131

solubility (mole fraction)
Details	298.15 K	308.15 K	318.15 K	328.15 K	338.15 K
in ethanol	0.000647	0.000693	0.000743	0.000792	0.000834
in ethylene glycol	0.0077	0.00841	0.00894	0.00961	0.0104
in isopropanol	0.00113	0.00121	0.00121	0.00129	0.00138
in propylene glycol	0.00738	0.00789	0.00848	0.00909	0.00987
